Earlier results as cited in article PMC3238097 (Journal of the American Chemical Society, 2011).

## naphthalene-diphenylalanine-glucosamine
  hydrogel formation: fails to form hydrogel properly
